Test results taken from patent US20230077584A1, “METHODS AND COMPOSITIONS FOR MODULATING ENTEROENDOCRINE CELLS” (Flagship Pioneering Innovations VI, LLC, priority 2021, published 2023).

Columns and labels:
[1] = test system: mouse intestinal organoids; test: mouse small intestinal organoid differentiation, lineage markers by Q-PCR; assay type: cell-based; conditions: ENR media, Q-PCR after 5 days of treatment, FIG. 2
Source text: Cryopreserved mouse intestinal organoids derived from small intestine were obtained from Stem Cell Technologies. The organoids were thawed and propagated in Intesticult Growth Medium (Mouse) (purchased from Stem Cell Technologies) following the company's instructions. Briefly, ˜100 organoid fragments/well are embedded in Matrigel domes in 24-well plates and growth media is renewed every 2-3 days. The organoids are passaged every 5-6 days in 1:4 ratio. To assess the potential of the predicted perturbations to induce the enteroendocrine cell lineage during organoid differentiation, we established an in vitro assay to induce the various intestinal lineages (enterocytes, goblet cells, Paneth cells, enteroendocrine cells) based on published data (Yin et al, Nat Methods. 2014 January; 11(1):106-12). Briefly, organoid fragments are embedded in Matrigel and grow in custom-made media in the presence of EGF, Noggin, Rspondin (ENR) supplemented with the indicated factors (Table 4) that are known to induce markers of the various intestinal lineages. The expression of markers and the induction of the various cell lineages was assessed by Q-PCRs after 5 days of treatments (FIG. 2). Further characterization of the organoids will be performed by immunofluorescence staining and flow cytometry. […]

[2] = test system: mouse intestinal organoids; conditions: ENR media supplemented with factor; based on published data (Yin et al); cited from earlier work

Compound	expression of chromogranin A and chromogranin B genes, markers of enteroendocrine cells [1]	Cell lineage (factors known to induce markers of intestinal lineages) [2]
C[C@H](NC(=O)Cc1cc(F)cc(F)c1)C(=O)N[C@H](C(=O)OC(C)(C)C)c1ccccc1 [DAPT]	induces the expression of chromogranin A and chromogranin B genes	Enteroendocrine Cells, Paneth
Cc1ccc2nc(NC(=O)CSc3nc4c(c(=O)n3-c3ccccc3)SCC4)sc2c1 [IWP2]		Enterocytes, Enteroendocrine Cells
